Laboratory results published in patent publication US20110230476A1, “PI3 KINASE INHIBITORS AND USES THEREOF” (AVILA THERAPEUTICS, INC., priority 2009, published 2011).

Assays:
[1] = biological target: T1, PI3Kγ (p120γ) (Homo sapiens, UniProt P48736); assay: HTRF assay, potency against active PI3Kγ; type: biochemical; conditions: [ATP]=50 μM, [di-C8-PIP2]=10 μM, 30 min pre-incubation, read-out: PI3Kγ Inhibition
T1 construct: purchased BPS Bioscience (San Diego, Calif.) or Millipore (Billerica, Mass.)
In short: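 End-point competition HTRF: enzyme (p110β/p85α 0.75 nM; p120γ 2-2.5 nM) with 10 μM di-C8-PIP2 pre-incubated 30 min at 25° C with compound, then 50 μM ATP added for 30-60 min at 25° C. Stopped, detected after 1 and 18 h; IC50 from variable-slope fit.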

[2] = test system: Phospho-Akt(Ser473); assay: Dose response in SKOV3 cells as determined by Western blot; type: cell-based; conditions: Homo sapiens, SK-OV-3, 1 hr, Phospho-Akt normalized to total Akt, read-out: Immunoblot
Description: Dose Response in SKOV3 Cells as Determined by Western Blot
SKOV3 cells were plated in SKOV3 Growth Media (DMEM supplemented with 10% FBS and pen/strep) at a density of 4×10^5 cells per well of 12 well plates. Twenty four hours later the media was removed and replaced with 1 ml media containing test compound and 0.1% DMSO and cells were returned to the incubator for 1 hr. At the end of the hour, the media was removed and the cells were washed with PBS, then lysed and scraped into 30 ul of Cell Extraction Buffer (Biosource, Camarillo, Calif.) plus Complete Protease Inhibitor and PhosStop Phosphatase Inhibitor (Roche, Indianapolis, Ind.).
Cell debris was spun down at 13,000×g for 1 minute and the supernatant was taken as the cell lysate. Protein concentration of the lysate was determined by BCA Assay (Pierce Biotechnology, Rockford, Ill.) and 50 ug of protein was loaded per well onto a NuPAGE Novex 4-12% Bis-Tris gel (Invitrogen, Carlsbad, Calif.) then transferred to Immobilon PVDF-FL (Millipore, Billerica, Mass.).
The blot was blocked in Odyssey Blocking Buffer (Li-Cor Biosciences, Lincoln, Nebr.) for 1 hr then incubated overnight at 4° C. with mouse anti-Akt (#2920) and rabbit anti-Phospho-Akt(Ser473) (#9271)(Cell Signaling Technology, Boston, Mass.) antibodies, both diluted 1:1000 in PBS/Odyssey Buffer (1:1)+0.1% Tween-20. The blots were washed 3 times 5 minutes in PBS+0.2% Tween-20 then incubated for 1 hr at room temperature with fluorescently labeled secondary antibodies (Li-Cor) diluted 1:10000 in PBS/Odyssey Buffer (1:1)+0.1% Tween-20.
The blots were washed 2 times for 5 minutes in PBS+0.2% Tween-20, once in distilled water, then scanned on an Odyssey machine (Li-Cor). Band intensity was determined using the Odyssey software and Phopho-Akt signal was normalized to total Akt within samples, then expressed as a percentage of the untreated Phospho-Akt signal.

[3] = test system: Phospho-Akt(Ser473); assay: Dose response in SKOV3 cells as determined by in-cell Western; type: cell-based; conditions: Homo sapiens, SK-OV-3; SKOV3 cells, 1 hr; read-out: pAKT Inhibition in cell Western
Description: Dose Response in SKOV3 Cells as Determined by in-Cell Western
Twenty four hours later the media was removed and replaced with 100 ul media containing test compound or control compound and cells were returned to the incubator for 1 hr. At the end of the hour, the media was removed and the cells were washed once with PBS, then fixed for 20 minutes at room temperature in 4% formaldehyde in PBS. The formaldehyde was removed and cells were washed 5 times for 5 minutes with 100 ul of Permeabilization Buffer (PBS+0.1% Triton X-100) at room temperature with gentle shaking. The last wash was removed and replaced with 150 ul of Odyssey Blocking Buffer (Li-Cor, Lincoln, Nebr.) and incubated for 90 minutes at room temperature with gentle shaking.
The Blocking Buffer was then replaced with 50 ul of primary antibody mix (rabbit anti-Phospho-Akt(Ser473) at 1:100 (Cell Signaling Technology, Boston, Mass.) and mouse anti-tubulin at 1:5000 (Sigma Aldrich, St. Louis, Mo.) diluted in Odyssey Blocking Buffer) and incubated overnight at room temperature with gentle shaking.
The next morning, the antibody mix was removed and the wells were washed 5 times for 5 minutes with PBS+0.1% Tween-20. The last wash was replaced with 50 ul of secondary antibody mix (goat anti-rabbit-IRDye-680 and goat anti-mouse-IRDye-800 (Li-Cor), both diluted 1:1000 in Odyssey Blocking Buffer+0.2% Tween-20) and incubated for 1 hour at room temperature with gentle shaking. The antibody mix was removed and the wells were washed 5 times for 5 minutes in PBS+0.1% Tween-20, then 1 time with ddH2O.
The plates were scanned on an Odyssey machine (Li-Cor) with a 3 mm focus offset at an intensity of 8 in both channels and the data was analyzed using the Odyssey software.

[4] = biological target: T2, PI3Kα (p110α/p85α) (Homo sapiens, UniProt P42336); assay: HTRF assay, potency against active PI3Kα; type: biochemical; conditions: HTRF; [ATP]=50 μM, [di-C8-PIP2]=10 μM; 30 min pre-incubation; read-out: PI3Kα Inhibition
T2 construct: purchased BPS Bioscience (San Diego, Calif.) or Millipore (Billerica, Mass.)
In short: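 Active p110/p85α lipid kinase reactions were started with ATP and run 30-60 minutes at 25 °C, then stopped and developed with HTRF detection mix. HTRF ratio converted to % inhibition against ±enzyme controls; IC50 from log[inhibitor] vs response, variable slope.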

[5] = test system: SKOV3 cells; assay: GI50 determinations in SKOV3 cells; type: cell-based; conditions: Homo sapiens, SK-OV-3; SKOV3 cells, 96 hours, Cell Titer Glo
Description: GI50 Determinations in SKOV3 Cells
A standard curve ranging from 10,000 to 50,000 cells was set up in a separate plate and allowed to adhere to the plate for 4-6 hours, at which time the plate was developed using Cell Titer-Glow (Promega, Madison, Wis.) according to manufacturer's instructions.
The next morning, 3-fold compound dilutions ranging from 10,000 nM to 40 nM were prepared in Proliferation Media containing 1% DMSO. 20 ul of each dilution was added to the SKOV3 cells plated the previous day resulting in a dose response curve from 1000 nM to 4 nM. The cells were incubated for 96 hours and then developed with Cell Titer Glo.
The cell numbers at the end of the assay were determined using the standard curve generated at the start of the assay. Growth inhibition was calculated using the following formulas and GI50s were determined by plotting the % growth inhibition vs. Log compound concentration in GraphPad.
%growth=100×(T−T0)/(C−T0)
T=Cell Number at end of assay T0=Cell Number at start of assay (5000) C=Number of cells in DMSO controls at end of assay
%growth inhibition=100−%growth

T1 sequence (P48736 whole entry): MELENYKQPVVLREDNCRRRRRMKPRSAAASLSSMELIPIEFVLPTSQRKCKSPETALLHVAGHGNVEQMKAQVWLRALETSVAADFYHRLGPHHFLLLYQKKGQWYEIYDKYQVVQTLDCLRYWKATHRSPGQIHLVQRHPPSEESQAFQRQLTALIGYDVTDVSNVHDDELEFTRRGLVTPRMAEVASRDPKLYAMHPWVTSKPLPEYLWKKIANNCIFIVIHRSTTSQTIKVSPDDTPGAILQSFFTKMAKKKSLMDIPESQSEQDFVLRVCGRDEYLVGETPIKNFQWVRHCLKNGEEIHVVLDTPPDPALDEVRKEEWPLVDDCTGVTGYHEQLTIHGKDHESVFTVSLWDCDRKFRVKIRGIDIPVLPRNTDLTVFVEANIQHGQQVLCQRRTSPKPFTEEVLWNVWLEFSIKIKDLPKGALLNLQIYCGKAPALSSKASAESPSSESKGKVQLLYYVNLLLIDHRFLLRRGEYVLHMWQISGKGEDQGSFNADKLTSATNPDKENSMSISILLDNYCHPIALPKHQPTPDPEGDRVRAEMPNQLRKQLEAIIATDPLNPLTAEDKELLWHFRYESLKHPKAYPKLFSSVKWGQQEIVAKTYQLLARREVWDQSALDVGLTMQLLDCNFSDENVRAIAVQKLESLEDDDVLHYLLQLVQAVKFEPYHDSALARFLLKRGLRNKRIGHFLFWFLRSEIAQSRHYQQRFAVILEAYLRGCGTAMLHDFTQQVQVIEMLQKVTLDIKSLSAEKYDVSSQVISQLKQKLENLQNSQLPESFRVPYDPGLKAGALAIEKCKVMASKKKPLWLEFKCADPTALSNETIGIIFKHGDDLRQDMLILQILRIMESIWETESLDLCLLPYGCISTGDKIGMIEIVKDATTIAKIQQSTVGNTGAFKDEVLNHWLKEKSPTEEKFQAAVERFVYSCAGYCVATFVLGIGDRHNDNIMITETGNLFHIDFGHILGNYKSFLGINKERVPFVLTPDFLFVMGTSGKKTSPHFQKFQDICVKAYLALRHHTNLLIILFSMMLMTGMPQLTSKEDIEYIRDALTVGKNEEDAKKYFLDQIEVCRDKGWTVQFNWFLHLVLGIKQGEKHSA
T2 sequence (P42336 whole entry): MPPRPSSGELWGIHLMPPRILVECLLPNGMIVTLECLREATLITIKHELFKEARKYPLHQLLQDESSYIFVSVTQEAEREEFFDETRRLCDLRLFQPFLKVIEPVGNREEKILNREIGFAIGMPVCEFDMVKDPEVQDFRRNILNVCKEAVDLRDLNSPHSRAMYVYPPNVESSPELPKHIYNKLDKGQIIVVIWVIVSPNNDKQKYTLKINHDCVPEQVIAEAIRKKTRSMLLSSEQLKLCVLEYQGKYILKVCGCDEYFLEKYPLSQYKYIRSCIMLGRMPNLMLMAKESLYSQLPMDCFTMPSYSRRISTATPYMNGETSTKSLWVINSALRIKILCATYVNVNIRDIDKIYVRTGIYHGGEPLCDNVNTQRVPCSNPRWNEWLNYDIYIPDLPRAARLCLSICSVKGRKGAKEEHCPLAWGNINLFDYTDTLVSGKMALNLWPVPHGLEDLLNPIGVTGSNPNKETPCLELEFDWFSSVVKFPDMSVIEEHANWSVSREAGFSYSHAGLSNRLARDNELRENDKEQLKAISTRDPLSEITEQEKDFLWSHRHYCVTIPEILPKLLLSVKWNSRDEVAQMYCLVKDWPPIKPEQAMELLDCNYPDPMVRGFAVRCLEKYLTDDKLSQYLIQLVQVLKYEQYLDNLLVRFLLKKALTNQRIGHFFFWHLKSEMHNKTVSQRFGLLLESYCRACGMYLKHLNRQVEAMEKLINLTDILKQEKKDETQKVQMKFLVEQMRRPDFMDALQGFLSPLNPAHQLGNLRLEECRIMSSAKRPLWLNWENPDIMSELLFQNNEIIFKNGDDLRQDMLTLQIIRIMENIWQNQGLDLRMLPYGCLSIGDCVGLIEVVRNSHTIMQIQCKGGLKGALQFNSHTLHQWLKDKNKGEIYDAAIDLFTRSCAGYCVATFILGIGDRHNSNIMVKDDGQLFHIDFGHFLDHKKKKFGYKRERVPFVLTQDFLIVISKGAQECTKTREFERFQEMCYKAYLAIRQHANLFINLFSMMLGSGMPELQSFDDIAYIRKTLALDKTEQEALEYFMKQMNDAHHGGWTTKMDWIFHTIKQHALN
T2 sequence (P27986 whole entry partner): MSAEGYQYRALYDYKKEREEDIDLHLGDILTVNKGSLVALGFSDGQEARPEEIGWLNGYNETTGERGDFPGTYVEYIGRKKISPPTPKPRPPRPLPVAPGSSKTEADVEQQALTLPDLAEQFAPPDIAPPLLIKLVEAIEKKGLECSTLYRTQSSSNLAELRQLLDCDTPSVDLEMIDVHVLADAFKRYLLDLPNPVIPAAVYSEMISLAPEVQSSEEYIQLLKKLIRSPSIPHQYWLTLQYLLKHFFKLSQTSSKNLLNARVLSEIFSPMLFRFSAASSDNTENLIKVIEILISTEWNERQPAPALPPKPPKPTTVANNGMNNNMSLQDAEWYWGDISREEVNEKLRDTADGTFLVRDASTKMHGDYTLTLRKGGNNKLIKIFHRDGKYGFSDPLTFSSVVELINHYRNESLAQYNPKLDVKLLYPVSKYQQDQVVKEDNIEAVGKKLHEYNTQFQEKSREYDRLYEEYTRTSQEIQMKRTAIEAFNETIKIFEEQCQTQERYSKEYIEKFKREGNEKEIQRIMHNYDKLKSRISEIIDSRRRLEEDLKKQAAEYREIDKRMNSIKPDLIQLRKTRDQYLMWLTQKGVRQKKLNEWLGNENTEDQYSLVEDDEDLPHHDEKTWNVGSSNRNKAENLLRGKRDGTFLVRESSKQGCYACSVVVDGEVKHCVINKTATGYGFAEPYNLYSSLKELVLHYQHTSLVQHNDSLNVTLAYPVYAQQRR

**Q.** Which IC50 [1] does the source give for C=C(C)C(=O)CCCC(=O)N1CCN(Cc2cc3nc(-c4cccc5[nH]ncc45)nc(N4CCOCC4)c3s2)CC1 [II-a-14] here?
**A.** > 1000 nM

**Q.** And the EC50 [2]?
**A.** 10 to 100 nM

**Q.** And the EC50 [3]?
**A.** ≤ 10 nM

**Q.** What about the IC50 [4] of the same molecule?
**A.** 10 to 100 nM

**Q.** What does the source list for C/C=C/C(=O)CCCC(=O)N1CCN(Cc2cc3nc(-c4cccc5[nH]ncc45)nc(N4CCOCC4)c3s2)CC1 [II-a-22, (E)-1-(4-((2-(1H-indazol-4-yl)-4-morpholinothieno[3,2-d]pyrimidin-6-yl)methyl)piperazin-1-yl)oct-6-ene-1,5-dione]?
**A.** IC50 [1]: > 1000 nM; EC50 [2]: 10 to 100 nM; IC50 [4]: 10 to 100 nM

**Q.** For C=C(CC)C(=O)CCC(=O)N1CCN(Cc2cc3nc(-c4cccc5[nH]ncc45)nc(N4CCOCC4)c3s2)CC1 [II-a-86, 1-(4-((2-(1H-indazol-4-yl)-4-morpholinothieno[3,2-d]pyrimidin-6-yl)methyl)piperazin-1-yl)-5-methyleneheptane-1,4-dione], which GI50 [5] is on record?
**A.** 10 to 100 nM

**Q.** And the EC50 [3]?
**A.** ≤ 10 nM

**Q.** What about the IC50 [4] of the same molecule?
**A.** 10 to 100 nM

**Q.** Which EC50 [2] does the source give for O=C(/C=C/c1ccccc1)CCC(=O)N1CCN(C(=O)c2cc3nc(-c4cccc5[nH]ncc45)nc(N4CCOCC4)c3s2)CC1 [II-a-142, (E)-1-(4-(2-(1H-indazol-4-yl)-4-morpholinothieno[3,2-d]pyrimidine-6-carbonyl)piperazin-1-yl)-6-phenylhex-5-ene-1,4-dione] here?
**A.** 10 to 100 nM

**Q.** What about the EC50 [3] of the same molecule?
**A.** 10 to 100 nM

**Q.** What about the IC50 [4] of the same molecule?
**A.** < 10 nM

**Q.** With C=CC(=O)Nc1ccc(C(=O)N2CCN(C(=O)c3cc4nc(-c5cccc6[nH]ncc56)nc(N5CCOCC5)c4s3)CC2)cc1 [II-a-143, N-(4-(4-(2-(1H-indazol-4-yl)-4-morpholinothieno[3,2-d]pyrimidine-6-carbonyl)piperazine-1-carbonyl)phenyl)acrylamide] as the molecule, how does the GI50 [5] read?
**A.** 100 to 1000 nM

**Q.** And the EC50 [3]?
**A.** ≤ 10 nM

**Q.** What about the IC50 [4] of the same molecule?
**A.** 100 to 1000 nM

**Q.** O=C(/C=C(/c1ccccc1)C(F)(F)F)CCC(=O)N1CCN(Cc2cc3nc(-c4cccc5[nH]ncc45)nc(N4CCOCC4)c3s2)CC1 [II-a-158, (Z)-1-(4-((2-(1H-indazol-4-yl)-4-morpholinothieno[3,2-d]pyrimidin-6-yl)methyl)piperazin-1-yl)-7,7,7-trifluoro-6-phenylhept-5-ene-1,4-dione] was tested. Which GI50 [5] did it give?
**A.** 100 to 1000 nM

**Q.** And the IC50 [4]?
**A.** 10 to 100 nM

**Q.** With C=CC(=O)Nc1cc(C(=O)N2CC=C(c3cc4nc(-c5cnc(N)nc5)nc(N5CCOCC5)c4s3)CC2)ccc1Cl [II-a-159, N-(5-(4-(2-(2-aminopyrimidin-5-yl)-4-morpholinothieno[3,2-d]pyrimidin-6-yl)-1,2,3,6-tetrahydropyridine-1-carbonyl)-2-chlorophenyl)acrylamide] as the molecule, how does the GI50 [5] read?
**A.** 100 to 1000 nM

**Q.** And the IC50 [4]?
**A.** 10 to 100 nM

**Q.** O=C(/C=C/c1ccccn1)CCC(=O)NCC12CCC(c3cc4nc(-c5cccc6[nH]ncc56)nc(N5CCOCC5)c4s3)(CC1)OC2 [II-a-163, (E)-N-((1-(2-(1H-indazol-4-yl)-4-morpholinothieno[3,2-d]pyrimidin-6-yl)-2-oxabicyclo[2.2.2]octan-4-yl)methyl)-4-oxo-6-(pyridin-2-yl)hex-5-enamide] was tested. Which GI50 [5] did it give?
**A.** 100 to 1000 nM

**Q.** And the EC50 [3]?
**A.** 10 to 100 nM

**Q.** And the IC50 [4]?
**A.** > 1000 nM

**Q.** C=CC(=O)Nc1ccc(COCc2cc3nc(-c4cnc(N)nc4)nc(N4CCOCC4)c3s2)cc1 [II-a-173, N-(4-(((2-(2-aminopyrimidin-5-yl)-4-morpholinothieno[3,2-d]pyrimidin-6-yl)methoxy)methyl)phenyl)acrylamide] was tested. Which EC50 [2] did it give?
**A.** ≤ 10 nM

**Q.** And the EC50 [3]?
**A.** 10 to 100 nM

**Q.** What about the IC50 [4] of the same molecule?
**A.** 100 to 1000 nM

**Q.** Which IC50 [1] does the source give for CC(C)=CC(=O)CCCC(=O)N1CC=C(c2cc3nc(-c4cnc(N)nc4)cc(N4CCOCC4)c3s2)CC1 [II-g-3, 1-(4-(5-(2-aminopyrimidin-5-yl)-7-morpholinothieno[3,2-b]pyridin-2-yl)-5,6-dihydropyridin-1(2H)-yl)-7-methyloct-6-ene-1,5-dione] here?
**A.** 100 to 1000 nM

**Q.** And the EC50 [2]?
**A.** 100 to 1000 nM

**Q.** What about the EC50 [3] of the same molecule?
**A.** ≤ 10 nM

**Q.** What about the IC50 [4] of the same molecule?
**A.** 100 to 1000 nM

**Q.** How did the GI50 [5] turn out when C=CC(=O)Nc1ccc(C(=O)NCCOc2ccc3c(c2OC)N=C(NC(=O)c2cccnc2)N2CCN=C32)cc1 [IX-5, N-(8-(2-(4-acrylamidobenzamido)ethoxy)-7-methoxy-2,3-dihydroimidazo[1,2-c]quinazolin-5-yl)nicotinamide] was run?
**A.** 10 to 100 nM

**Q.** What about the IC50 [4] of the same molecule?
**A.** 10 to 100 nM

**Q.** For C=CC(=O)Nc1ccc(C(=O)N2CCC(n3ncc4c(N5CCOCC5)nc(-c5ccc(NC(=O)NC)cc5)nc43)CC2)cc1 [VII-8, N-(4-(4-(6-(4-(3-methylureido)phenyl)-4-morpholino-1H-pyrazolo[3,4-d]pyrimidin-1-yl)piperidine-1-carbonyl)phenyl)acrylamide], which GI50 [5] is on record?
**A.** 100 to 1000 nM

**Q.** What about the EC50 [3] of the same molecule?
**A.** 100 to 1000 nM

**Q.** And the IC50 [4]?
**A.** 100 to 1000 nM

**Q.** How did the GI50 [5] turn out when CNC(=O)Nc1ccc(-c2nc(N3CCOCC3)c3cnn(C4CCN(C(=O)CCC(=O)/C=C/c5ccccc5)CC4)c3n2)cc1 [VII-10, (E)-1-methyl-3-(4-(4-morpholino-1-(1-(4-oxo-6-phenylhex-5-enoyl)piperidin-4-yl)-1H-pyrazolo[3,4-d]pyrimidin-6-yl)phenyl)urea] was run?
**A.** 10 to 100 nM

**Q.** And the IC50 [4]?
**A.** 100 to 1000 nM

**Q.** CNC(=O)Nc1ccc(-c2nc(N3CCOCC3)c3cnn(C4CCN(C(=O)CCCC(=O)/C=C/c5ccccc5)CC4)c3n2)cc1 [VII-11, (E)-1-methyl-3-(4-(4-morpholino-1-(1-(5-oxo-7-phenylhept-6-enoyl)piperidin-4-yl)-1H-pyrazolo[3,4-d]pyrimidin-6-yl)phenyl)urea] was tested. Which GI50 [5] did it give?
**A.** 100 to 1000 nM

**Q.** And the IC50 [4]?
**A.** 100 to 1000 nM

**Q.** Which results are given for C=CC(=O)Nc1ccc(CC(=O)N2CCC(n3ncc4c(N5CCOCC5)nc(-c5cnc(N)nc5)nc43)CC2)cc1 [VII-13, N-(4-(2-(4-(6-(2-aminopyrimidin-5-yl)-4-morpholino-1H-pyrazolo[3,4-d]pyrimidin-1-yl)piperidin-1-yl)-2-oxoethyl)phenyl)acrylamide]?
**A.** EC50 [2]: 10 to 100 nM; EC50 [3]: 10 to 100 nM; IC50 [4]: 100 to 1000 nM
